The source of these data is patent US7517996B2, “Azole compound” (Ajinomoto Co., Inc., priority 2003, dated 2009).

Each structure is given as a SMILES string.

The nature of the test: Inhibition of LPA-induced intracellular Ca2+ concentration increase (FLIPR). The format is cell-based. The note with it: LPA final concentration 5 μM; rat hepatic stellate cell derived myofibroblast like clone; Fluo-3, FLIPR. An excerpt:
(1) Establishment of Myofibroblast Like Cell Strain Derived from Rat Hepatic Stellate Cell Fraction A stellate cell fraction was obtained from the liver of male Wistar rat according to a conventional method (European J. Biochem., 1993, vol. 213, p. 815). After subculture for several generations, the cell was cloned by limiting dilution. Well grown 24 clones that formed colonies were isolated. These clones were stained with αSMA antibody and confirmed to be all positive and to have Myofibroblast like properties. […] (2) Measurement of Cell Activation (Intracellular Ca^2+ Concentration Increasing Action)-Inhibitory Activity The above-mentioned cells were cultured overnight in a 384 well plate at 24,000 cells/well and the medium was removed. An assay buffer (0.1% BSA, 20 mM HEPES, 1×HBSS, 2.5 mM Probenecid) containing 4 μM of Fluo-3, AM (Biotium) was added, and the cells were stained at 37° C. for 1 hour. Following the buffer containing the dye reagent was removed, and an assay buffer was added, intracellular Ca^2+ concentration was measured with FLIPR (Molecular Devices). Adding a test substance and LPA at the final concentration of 5 μM, the inhibitory action of the test substance on the increase in the intracellular Ca^2+ concentration by LPA was examined. The increase in the intracellular Ca^2+ concentration by LPA addition without test substance was taken as 100%, that without the addition of LPA was taken as 0%, and the substrate's concentration (IC50) at inhibiting increase in the intracellular Ca^2+ concentration by 50% was determined.
As usually defined, the IC50 is the concentration that gives 50% inhibition. Higher therefore signals weaker potency. Compound `CC(OC(=O)Nc1conc1-c1ccc(CSCCC(=O)O)cc1)c1ccccc1Cl` (centres unmarked) [Compound 2, 3-(4-{4-[1-(2-chlorophenyl)ethoxycarbonylamino]-3-isoxazolyl}benzylsulfanyl)propionic acid] came in with an IC50 of 51 nM.

In turn, `C[C@@H](OC(=O)Nc1conc1-c1ccc(CSCCC(=O)O)cc1)c1ccccc1Cl` [Compound 3, 3-(4-{4-[(1R)-1-(2-chlorophenyl)ethoxycarbonylamino]-3-isoxazolyl}benzylsulfanyl)propionic acid] displayed an IC50 of 22 nM.

In the case of `CC(=O)N[C@@H](CSCc1ccc(-c2nocc2NC(=O)OC(C)c2ccccc2Cl)cc1)C(=O)O` (stereo partly drawn) [Compound 4, N-acetyl-S-(4-{4-[1-(2-chlorophenyl)ethoxycarbonylamino]-3-isoxazolyl}benzyl)-L-cysteine], the IC50 came to 65 nM. To `CC(OC(=O)Nc1conc1-c1ccc(CSCCS(=O)(=O)O)cc1)c1ccccc1Cl` (centres unmarked) [Compound 5, 2-(4-{4-[1-(2-chlorophenyl)ethoxycarbonylamino]-3-isoxazolyl}benzylsulfanyl)ethanesulfonic acid] belongs 74 nM; to `C[C@@H](OC(=O)Nc1conc1-c1ccc(CSCCC(=O)O)cc1)c1ccccc1Br` [Compound 6, 3-(4-{4-[(1R)-1-(2-bromophenyl)ethoxycarbonylamino]-3-isoxazolyl}benzylsulfanyl)propionic acid], 22 nM; to `CC(=O)N[C@@H](CSCc1ccc(-c2nocc2NC(=O)O[C@H](C)c2ccccc2Br)cc1)C(=O)O` [Compound 7, N-acetyl-S-(4-{4-[(1R)-1-(2-bromophenyl)-ethoxycarbonylamino]-3-isoxazolyl}benzyl)-L-cysteine], 59 nM. `CC(OC(=O)Nc1conc1-c1ccc(CSCCC(=O)O)cc1)C1=C(Cl)CCC1` (centres unmarked) [Compound 8, 3-(4-{4-[1-(2-chloro-1-cyclopentenyl)ethoxycarbonylamino]-3-isoxazolyl}benzylsulfanyl)propionic acid] yielded an IC50 of 29 nM. For `C[C@@H](OC(=O)Nc1conc1-c1ccc(CSCCC(=O)O)cc1)C1=C(Cl)CCC1` [Compound 9, 3-(4-{4-[(1R)-1-(2-chloro-1-cyclopentenyl)ethoxycarbonyl-amino]-3-isoxazolyl}benzylsulfanyl)propionic acid], the IC50 is 26 nM.

`CC(OC(=O)Nc1conc1-c1ccc(CSCCC(=O)O)cc1)C1=C(Cl)CCCC1` (centres unmarked) [Compound 10, 3-(4-{4-[1-(2-chloro-1-cyclohexenyl)ethoxycarbonylamino]-3-isoxazolyl}benzylsulfanyl)propionic acid] came in with a concentration for half-maximal inhibition (IC50) of 56 nM.

As for `CC(OC(=O)Nc1conc1-c1ccc(CS(=O)(=O)CCC(=O)O)cc1)c1ccccc1Cl` (centres unmarked) [Compound 11, 3-(4-{4-[1-(2-chlorophenyl)ethoxycarbonylamino]-3-isoxazolyl}benzylsulfonyl)propionic acid], half-maximal inhibition (IC50) was put at 115 nM. The result for `C[C@@H](OC(=O)Nc1conc1-c1ccc(CS(=O)(=O)CCC(=O)O)cc1)c1ccccc1Br` [Compound 12, 3-(4-{4-[(1R)-1-(2-bromophenyl)ethoxycarbonylamino]-3-isoxazolyl}benzylsulfonyl)propionic acid] reads 68 nM. In turn, `CC(OC(=O)Nc1conc1-c1ccc(CS(=O)(=O)CCC(=O)O)cc1)C1=C(Cl)CCCC1` (centres unmarked) [Compound 13, 3-(4-{4-[1-(2-chloro-1-cyclohexenyl)ethoxycarbonylamino]-3-isoxazolyl}benzylsulfonyl)propionic acid] had an IC50 of 104 nM.

For `CC(OC(=O)Nc1conc1-c1ccc(CCSCC(=O)O)cc1)c1ccccc1Cl` (centres unmarked) [Compound 14, {[2-(4-{4-[1-(2-chlorophenyl)ethoxycarbonylamino]-3-isoxazolyl}phenyl)ethyl]thio}acetic acid], the IC50 stood at 146 nM. As for `CC(OC(=O)Nc1conc1-c1ccc(CCSCCC(=O)O)cc1)c1ccccc1Cl` (centres unmarked) [Compound 15, {3-[2-(4-{4-[1-(2-chlorophenyl)ethoxycarbonylamino]-3-isoxazolyl}phenyl)ethyl]thio}propionic acid], the IC50 was 44 nM.

Consider `CC(OC(=O)Nc1conc1-c1ccc(CCSCC(=O)O)cc1)C1=C(Cl)CCC1` (centres unmarked) [Compound 16, {[2-(4-{4-[1-(2-chlorocyclopentenyl)ethoxycarbonylamino]-3-isoxazolyl}phenyl)ethyl]thio}acetic acid], for which the half-inhibitory concentration (IC50) is 32 nM. To `CC(OC(=O)Nc1conc1-c1ccc(CCSCC(=O)O)cc1)C1=C(Cl)CCCC1` (centres unmarked) [Compound 17, {[2-(4-{4-[1-(2-chlorocyclohexenyl)ethoxycarbonylamino]-3-isoxazolyl}phenyl)ethyl]thio}acetic acid] belongs 62 nM. `CC(OC(=O)Nc1cnoc1-c1ccc(CSCCC(=O)O)cc1)c1ccccc1Cl` (centres unmarked) [Compound 18, 3-(4-{4-[1-(2-chlorophenyl)ethoxycarbonylamino]-5-isoxazolyl}benzylsulfanyl)propionic acid] returned an IC50 of 81 nM.

`CC(OC(=O)Nc1conc1-c1ccc(CCCCC(=O)O)cc1)c1ccccc1Cl` (centres unmarked) [Compound 19, 5-(4-{4-[1-(2-chlorophenyl)ethoxycarbonylamino]-3-isoxazolyl}phenyl)-4-pentanoic acid] registered an IC50 of 47 nM. To `CC(OC(=O)Nc1conc1-c1ccc(COC(=O)NCCC(=O)O)cc1)c1ccccc1Cl` (centres unmarked) [Compound 20, 3-(4-{4-[1-(2-chlorophenyl)ethoxycarbonylamino]-3-isoxazolyl}benzyloxycarbonylamino)propionic acid] belongs 83 nM; to `CC(OC(=O)Nc1conc1-c1ccc(NC(=O)C[C@@H](O)C(=O)O)cc1)c1ccccc1Cl` (stereo partly drawn) [Compound 21, 4-[(4-{4-[1-(2-chlorophenyl)ethoxycarbonylamino]-3-isoxazolyl}phenyl)amino]-(2R)-2-hydroxy-4-oxobutanoic acid], 84 nM.

`CC(=O)Oc1ccc(-c2nocc2NC(=O)OC(C)c2ccccc2Cl)cc1` (centres unmarked) [Compound 22, 4-[4-({[1-(2-chlorophenyl)ethoxy]carbonyl}amino)-3-isoxazolyl]phenyl acetate]: the IC50 is 140 nM. Compound `CC(OC(=O)Nc1conc1-c1ccc(O)cc1)c1ccccc1Cl` (centres unmarked) [Compound 23, 1-(2-chlorophenyl)ethyl 3-(4-hydroxyphenyl)-4-isoxazolylcarbamate] came in with an IC50 of 116 nM.

Compound `CC(OC(=O)Nc1conc1-c1ccc(OCCCCC(=O)O)cc1)c1ccccc1Cl` (centres unmarked) [Compound 24, 5-(4-{4-[1-(2-chlorophenyl)ethoxycarbonylamino]-3-isoxazolyl}phenoxy)pentanoic acid] came in with an IC50 of 131 nM. The compound `CC(OC(=O)Nc1conc1-c1ccc(NC(=O)CCC(=O)O)cc1)c1ccccc1Cl` (centres unmarked) [Compound 25, 4-[(4-{4-[1-(2-chlorophenyl)ethoxycarbonylamino]-3-isoxazolyl}phenyl)amino]-4-oxobutanoic acid] displayed an IC50 of 73 nM. Compound `CC(=O)O[C@H](CC(=O)Nc1ccc(-c2nocc2NC(=O)OC(C)c2ccccc2Cl)cc1)C(=O)O` (stereo partly drawn) [Compound 26, (2R)-2-acetoxy-4-[(4-{4-[1-(2-chlorophenyl)ethoxy-carbonylamino]-3-isoxazolyl}phenyl)amino]-4-oxobutanoic acid] returned an IC50 of 141 nM. In turn, `C[C@@H](OC(=O)Nc1conc1-c1ccc(CCSCC(=O)O)cc1)c1ccccc1Cl` [Compound 27, {[2-(4-{4-[(1R)-1-(2-chlorophenyl)ethoxycarbonylamino]-3-isoxazolyl}phenyl)ethyl]thio}acetic acid] returned an IC50 of 19 nM. To `C[C@@H](OC(=O)Nc1conc1-c1ccc(CS(=O)(=O)CCC(=O)O)cc1)c1ccccc1Cl` [Compound 28, 3-(4-{4-[(1R)-1-(2-chlorophenyl)ethoxycarbonylamino]-3-isoxazolyl}benzylsulfonyl)propionic acid] belongs 36 nM; to `C[C@@H](OC(=O)Nc1conc1-c1ccc(CCSCCC(=O)O)cc1)c1ccccc1Cl` [Compound 29, {3-[2-(4-{4-[(1R)-1-(2-chlorophenyl)ethoxycarbonylamino]-3-isoxazolyl}phenyl)ethyl]thio}propionic acid], 29 nM. To `C[C@@H](OC(=O)Nc1conc1-c1ccc(/C=C/CCC(=O)O)cc1)c1ccccc1Cl` [Compound 30, 5-(4-{4-[(1R)-1-(2-chlorophenyl)ethoxycarbonylamino]-3-isoxazolyl}phenyl)-4-pentenoic acid] belongs 107 nM; to `C[C@@H](OC(=O)Nc1conc1-c1ccc(CCCCC(=O)O)cc1)c1ccccc1Cl` [Compound 31, 5-(4-{4-[(1R)-1-(2-chlorophenyl)ethoxycarbonylamino]-3-isoxazolyl}phenyl)-4-pentanoic acid], 76 nM; to `C[C@@H](OC(=O)Nc1conc1-c1ccc(CCCCCC(=O)O)cc1)c1ccccc1Cl` [Compound 32, 6-(4-{4-[(1R)-1-(2-chlorophenyl)ethoxycarbonylamino]-3-isoxazolyl}phenyl)hexanoic acid], 114 nM. To `CC(OC(=O)Nc1conc1-c1ccc(CCC(C)(C)CC(=O)O)cc1)c1ccccc1Cl` (centres unmarked) [Compound 33, 5-(4-{4-[1-(2-chlorophenyl)ethoxycarbonylamino]-3-isoxazolyl}phenyl)-3,3-dimethylpentanoic acid] belongs 119 nM.
